# Like-named read-outs stand apart in the source and are kept apart here.
# Columns and labels:
# [1] = test system: human breast cancer cell line MCF-7; experiment: MTT cytotoxicity assay, breast cancer MCF-7 cells; format: cell-based; details: MCF-7, MTT
# Experimental: (§1) The measurement was performed using the MTT assay in cultures treated with increasing concentrations.
# (§2) The effect of the compounds applied to breast cancer MCF-7 cells and breast epithelial MCF-10A cells was evaluated by measuring 3-(4,5-dimethylthiazol-2-yl)-2,5-diphenyl tetrazolium bromide (MTT) (Invitrogen, Waltham, MA, USA). All compounds were diluted in dimethylsulfoxide (DMSO) with a final DMSO concentration of 0.01% (0.01 mL/100 mL × 100 = 0.01% means 0.01 mL of DMSO to 99.99 mL of water) in all groups and untreated controls. Cells were seeded in 96-well plates at a density of 5 × 10^3 cells per well and incubated with compounds diluted in serial concentrations ranging from 0.29 µM to 150 µM. After 24, 48, and 72 h at 37 °C and 5% CO2, 10 µL of MTT (5 mg/mL) was added to each well and incubated for 4 h at 37 °C. The supernatant was then removed, and 100 µL/well of DMSO was added to dissolve any deposited formazan. The optical density was measured at 570 nm using a microplate reader (DR-200B-NM_Kasuaki, Tokyo, Japan).
# [2] = test system: non-malignant breast epithelial cell line MCF-10A; experiment: MTT cytotoxicity assay, non-malignant MCF-10A cells; format: cell-based, human
# Experimental: as §1, §2
# the cells tested = test system: the cells tested; parameters: method as in doi:10.1016/j.ica.2017.03.027; details: related work; cited from earlier work
# [3] = read-out: IC50 (Inhibitory Concentration 50%) ± SD at 24 h, 24 h
# [4] = read-out: IC50 (Inhibitory Concentration 50%) ± SD at 48 h, 48 h
structure (smiles),measurement,setting,value
"C=CCSC1=NN=C(C)c2ccccc2[O][Ni]([P](c2ccccc2)(c2ccccc2)c2ccccc2)[S]1 [(1), [Ni(L^1)PPh3]]",IC50,[1]; [3],12.82 ± 0.029 µM
same,IC50,[1]; [4],22.71 ± 0.016 µM
same,IC50,"[1]; read-out: IC50 (Inhibitory Concentration 50%) ± SD at 72 h, 72 h",18.07 ± 0.017 µM
same,IC50,[2]; [3],25.47 ± 0.031 µM
same,IC50,[2]; [4],28.43 ± 0.021 µM
"C=CCSC(=S)N/N=C(\C)c1ccccc1O [H2L^1, S-Allyl-2-(2-hydroxyphenyl-ethylidene)dithiocarbazato]",IC50,"[1]; Homo sapiens, MCF7, read-out: IC50 (Inhibitory Concentration 50%) ± SD at 24 h, 24 h",88.85 ± 0.097 µM
same,IC50,"[1]; Homo sapiens, MCF7, read-out: IC50 (Inhibitory Concentration 50%) ± SD at 48 h, 48 h",87.73 ± 0.042 µM
same,IC50,"[1]; Homo sapiens, MCF7, read-out: IC50 (Inhibitory Concentration 50%) ± SD at 72 h, 72 h",28.49 ± 0.023 µM
same,IC50,"[2]; Homo sapiens, read-out: IC50 (Inhibitory Concentration 50%) ± SD at 24 h, 24 h",65.44 ± 0.034 µM
same,IC50,"[2]; Homo sapiens, read-out: IC50 (Inhibitory Concentration 50%) ± SD at 48 h, 48 h",62.86 ± 0.013 µM
same,IC50,"[2]; Homo sapiens, read-out: IC50 (Inhibitory Concentration 50%) ± SD at 72 h, 72 h",62.86 ± 0.025 µM
same,melting point,,116 °C
"C/C(=N\NC(=S)SCc1ccccc1)c1ccccc1O [H2L^2, S-Benzyl-2-(2-hydroxyphenyl-ethylidene)dithiocarbazato]",melting point,,145 °C
O.O.O.O.O.O.[Cl][Ni][Cl] [NiCl2⋅6H2O],effect on cell proliferation or cell viability,the cells tested,no substantial effect

# — PMC11206525, “Structural Design, Anticancer Evaluation, and Molecular Docking of Newly Synthesized Ni(II) Complexes with ONS-Donor Dithiocarbazate Ligands” (Molecules, 2024)
